# From patent US10889611B2, “Sialyltransferase inhibitors and uses thereof” (Academia Sinica, priority 2015, dated 2021)
# Assays:
# [1] = target: T1, α2,6(N)-sialyltransferases ST6GALI (Homo sapiens, UniProt P15907); assay: Sialyltransferase inhibition assay, ST6GALI (reverse-phase HPLC); type: biochemical
# T1 construct: purchased RnDSystems.com (R&D Systems)
# T1 sequence (P15907 1-406): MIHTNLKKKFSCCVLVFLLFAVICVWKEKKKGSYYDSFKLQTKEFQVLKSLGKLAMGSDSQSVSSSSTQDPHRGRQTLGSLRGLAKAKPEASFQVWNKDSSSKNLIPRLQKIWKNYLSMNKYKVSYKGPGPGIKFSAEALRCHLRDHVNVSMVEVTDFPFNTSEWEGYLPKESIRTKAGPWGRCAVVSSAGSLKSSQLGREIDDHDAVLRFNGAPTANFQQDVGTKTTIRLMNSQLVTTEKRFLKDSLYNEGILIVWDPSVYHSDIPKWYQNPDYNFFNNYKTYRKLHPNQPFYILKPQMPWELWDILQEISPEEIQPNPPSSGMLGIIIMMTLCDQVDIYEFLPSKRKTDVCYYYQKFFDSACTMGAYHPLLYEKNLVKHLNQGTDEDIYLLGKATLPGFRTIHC
# Method in brief: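 Human ST6GalI (1.4 mU) incubated 15 min at 37° C with 25 μM Galβ1-4GlcNAc, 1 mM CMP-Neu5Ac and inhibitor in 200 mM MES, 100 mM NaCl, 0.5 mM EDTA, 0.01% Triton X-100. Sialylated product quantified by reverse-phase HPLC; kinetics from nonlinear fitting of initial rates.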
# MDA-MB-231 cells = assay: Transwell migration assay, breast cancer cells; type: cell-based, human
# Text: Migration assays were done using a transwell, in which a polycarbonate filter pre-coated with Matrigel (8-μm pores, Millicell; Millipore, Billerica, Mass.) was inserted therein. […] Cells that had migrated to the underside of the inserted filter were stained with hematoxylin solution. The cells in the upper side of the inserted membrane were rubbed with a cotton swab. The migrated cells on the underside were pictured in a 200× magnification field and quantified.
# PANC-1 cells = assay: In vitro transwell invasion analysis, PANC-1 cells; type: cell-based, human; conditions: PANC-1 cells grown in fructose-containing medium, FIG. 4
# Description: Migration assays were done using a transwell, in which a polycarbonate filter pre-coated with Matrigel (8-μm pores, Millicell; Millipore, Billerica, Mass.) was inserted therein. Cells were serum-starved for 24 h and then seeded (5×10^5 cells per upper chamber) and treated with or without the present compound(s) (concentrations as indicated), and the assays were run for 6 h. Cells that had migrated to the underside of the inserted filter were stained with hematoxylin solution. The cells in the upper side of the inserted membrane were rubbed with a cotton swab. The migrated cells on the underside were pictured in a 200× magnification field and quantified.
# In this example, the ability of the FCW34 in suppressing the migration and/or invasion of pancreatic cancer cells was investigated using in vitro transwell analysis and in vivo mice model bearing pancreatic cancer.
# PANC-1 pancreatic tumor = assay: Inhibition of pancreatic tumor growth in SCID mice; type: in vivo
# Description: SCID mice (6 weeks old) were orthotopically injected with 1×10^5 human pancreatic cells PANC-1 grown in glucose-containing or fructose-containing medium with or without the presence of the present compound (e.g., FCW34, 5 μM) on day 0. The progression of the tumor was followed by bioluminescence IVIS image analysis, and the test animals were then sacrificed by cervical dislocation after 14 weeks, and respective tumors and the liver sections were collected, and analyzed by histochemical staining with SNA lectin to measure 2,6-sialylation levels utilizing FACS analysis.
# [2] = target: T2, α2,3(N)-sialyltransferase ST3GALIII (Rattus norvegicus, UniProt Q02734); assay: Sialyltransferase activity assay, ST3GALIII; type: biochemical; conditions: α2,3-N-link; read-out: IC50 (μM) ST3GALIII
# T2 construct: purchased Calbiochem
# T2 sequence (Q02734 1-374): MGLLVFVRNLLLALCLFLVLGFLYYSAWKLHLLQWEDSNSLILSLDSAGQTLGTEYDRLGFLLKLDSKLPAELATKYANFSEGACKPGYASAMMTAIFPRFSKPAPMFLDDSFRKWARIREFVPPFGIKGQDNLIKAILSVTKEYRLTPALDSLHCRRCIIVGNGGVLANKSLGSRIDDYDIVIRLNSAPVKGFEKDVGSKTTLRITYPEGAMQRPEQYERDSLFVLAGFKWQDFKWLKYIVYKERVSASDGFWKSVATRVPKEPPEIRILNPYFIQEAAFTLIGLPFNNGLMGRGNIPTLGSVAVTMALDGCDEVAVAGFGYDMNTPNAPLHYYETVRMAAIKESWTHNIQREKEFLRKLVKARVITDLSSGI
structure (smiles),measurement,setting,value
"C[C@H](CCC(=O)OCCOCCOCCN=[N+]=[N-])C1CC[C@H]2[C@@H]3CC[C@@H]4C[C@H](OC(=O)[C@H](CC(=O)O)Nc5ccc([N+](=O)[O-])c6nonc56)CC[C@]4(C)[C@H]3CC[C@]12C (stereo partly drawn) [Compound 3, (3S)-4-(((3R,5R,8R,9S,10S,13R,14S)-17-((R)-5-(2-(2-(2-azidoethoxy)ethoxy)ethoxy)-5-oxopentan-2-yl)-10,13-dimethylhexadecahydro-1H-cyclopenta[a]phenanthren-3-yl)oxy)-3-((7-nitrobenzo[c][1,2,5]oxadiazol-4-yl)amino)-4-oxobutanoic acid]",selectivity ratio ST3GALI/ST6GALI,[1],>139
same,IC50,"[1]; α2,6-N-link, read-out: IC50 (μM) ST6GALI",3.59 ± 0.38 µM
same,migration of MDA-MD-231 cells,"MDA-MB-231 cells; 20 μM, FIG. 1",inhibited the migration
same,IC50,"MDA-MB-231 cells; Homo sapiens, MDA-MB-231, 16 h, read-out: IC50 on migration",10.64 ± 0.09 µM
same,invasion ability,PANC-1 cells,significantly inhibited
same,metastatic lesions in livers (histological analysis),PANC-1 pancreatic tumor; PANC-1 cells grown in fructose-containing medium,suppressed
same,progression of the tumor,"PANC-1 pancreatic tumor; PANC-1 cells pre-treated with FCW34, FIG. 5",halted significantly
same,Liver lesions Incidence,PANC-1 pancreatic tumor; mice bearing pancreatic cancer,0/3
same,IC50,[2],1.74 ± 0.09 µM
